Measurements: patent publication US7572436B1, “Thionin as an antineoplastic and immunostimulant” (priority 2000, dated 2009)

Experiments:
Balb C splenocytes [1] = test: Mitogen assay (^3H-thymidine uptake), murine splenocytes; type: cell-based
[2] = target: high affinity binding site on murine Balb/C splenocytes (mouse); test: binding of 125I-labelled PT to isolated murine spleen cells; non-specific binding (100-fold excess of unlabelled iodinated PT) subtracted
Balb C splenocytes [3] = test: Mitogen assay (^3H-thymidine uptake), murine splenocytes; type: cell-based; details: for CPM of tritiated thymidine incorporated: Balb C splenocytes
Excerpt: (§1) Murine spleen cells or human peripheral blood lymphocytes (PBLS) were obtained aseptically as described herein for use in the mitogen assay. When murine splenocytes were used, they were first treated with red cell lysing buffer (0.17 M Tris, 0.144 NH4C1, pH 7.2), washed in RPMI-10 (standard RPMI growth medium, Sigma Chemical Co., St. Louis, Mo., supplemented with 10% fetal bovine serum) and viable cells counted using Trypan Blue exclusion. Human PBLs were isolated from blood using HISTOPAQUE™-1077, a solution of FICOLL™ and sodium diatrizoate (Sigma Chemical Co., St. Louis, Mo.), and subsequent washings with RPMI-5 (RPMI supplemented with 5% fetal bovine serum) to remove platelets. Isolated lymphocytes were resuspended in RPMI-10 and a viable cell yield determined by Trypan Blue exclusion.
(§2) Drugs and known mitogenic controls were added in triplicate to a 96-well flat bottom microplate aseptically. The culture medium was RPMI-10. Splenocytes or human-lymphocytes were added at a concentration of 3-4×10^5 cells/well, to a final volume of 200 μl/well. The assay plate was incubated at 37° C. in a 5% CO2 humidified incubator. At 48-50 hours, ^3H-thymidine was added (1 μCi/well), and the plate was harvested approximately 16-18 hours later.
(§3) Mitogen assay microplates were harvested using an Inotech plate harvester (Inotech Biosystems International, Inc., Rockville, Md.). Counts per minute (cpm) per well were measured using the Berthold-Inotech Trace 96-plate reader (Inotech AT, Wohlen, Switzerland) and/or a scintillation counter (Packard Tri-carb 2100TR, Packard Instrument Co., Meriden, Conn.). Mitogenic activity was directly determined by comparing cpm levels to controls.
(§4) To test whether PT stimulates mitogen activity, splenocytes were incubated for two days with IL-2 (50 units/ml) or KLH (20 μg/ml) in conjunction with PT in the concentrations shown. Figures represent the radioactivity counts of tritiated thymidine taken up during a subsequent 20-hour incubation period of cells incubated with tritiated thymidine in RPMI.

IL-1 = test: ELISA of IL-1 production by splenocytes; type: cell-based, Balb C murine; details: 48 hours, PT 0.05 μg/ml
Experimental: (§5) Identical plates are set up for an immunoassay and a mitogen assay. Mouse splenocytes and immuno-stimulating drugs are plated in duplicate wells (immunoassay) and triplicate wells (mitogen assay) in 96-well microplates as described above. The incubation at 37° C. in a humidified 5% CO2 incubator may vary from three to five days. At the end of the activation/proliferation period, the two identical plates are harvested as an immunoassay for cytokines or harvested as a mitogen assay (to which ^3H-thymidine has been added approximately 16-18 hours earlier).
(§6) Immunoassay kits used to detect IL-1β, IL-2, and IL-12 were the murine Quantikine M™ kits produced by R&D Systems (Minneapolis, Minn.). The general procedure is the same for all interleukin cytokines, and is described in the instructions provided by the manufacturer. All reagents are used at room temperature, and are prepared according to kit instructions.
(§7) The immunoassay plate is centrifuged at 200×g to pellet all cells. A 50 μl aliquot of Assay Diluent is first added to the center of each special enzyme-coated well supplied with the kit. Next, 50 μl of standard, control or test sample of supernatant from the immunoassay incubation plate is added to each well. This is incubated at room temperatures for two hours.
Liquid is aspirated from the wells, and the wells are washed five times with surfactant diluted 1:25 with distilled water. A 100 μL aliquot of Conjugate is added to each well and incubated two hours at room temperature. The wells are again aspirated and each well washed five times.
One hundred microliters of Substrate Solution are added to each well and incubated 30 minutes at room temperature. Stop Solution (100 μl) is then added to each well. The color change is light blue to yellow (activity). The plate is read for absorbence at 450 nm and at 540 nm for background readings.
(§8) To calculate the results, the duplicate readings for each pair of standard, control, and test samples are averaged and the average background optical density readings are subtracted. A standard curve is constructed for the cytokine by plotting the mean absorbence for each standard on the y-axis against the concentration on the x-axis and drawing a best-fit curve. Picograms of cytokine are determined from the standard curve. Mitogenic activity determined from the cpm of ^3H-thymidine is compared to the concentrations of cytokine in the experimental samples in the corresponding immunoassay.
One measure of macrophage activation is the production of the cytokine interleukin-1 (IL-1) and also interleukin-12 (IL-12). Incubation of 3×10^5 Balb C murine spleen cells with 0.05 μg/ml PT was performed for 48 hours. The supernatant fluid was assayed with commercial ELISA kits for IL-1 and IL-12. […] Some experiments gave less […] and some more. This is likely a reflection of the state of the immune system in the experimental mice. The addition of KLH, an effective antigen, increased both IL-1 and IL-12 production, and the addition of PT along with the KLH further increased the production of these cytokines.

IL-12 = test: ELISA of IL-12 production by splenocytes; type: cell-based, Balb C murine; details: Experiment 1; 48 hours; PT 0.05 μg/ml, KLH 10 μg/ml; control 1.5
Experimental: as §5, §6, §7
Liquid is aspirated from the wells, and the wells are washed five times with surfactant diluted 1:25 with distilled water. A 100 μL aliquot of Conjugate is added to each well and incubated two hours at room temperature. […]
One hundred microliters of Substrate Solution are added to each well and incubated 30 minutes at room temperature. […] The plate is read for absorbence at 450 nm and at 540 nm for background readings.
as §8, with “A standard curve is constructed for the cytokine by plotting the mean absorbence for each standard on the y-axis against the concentration on the x-axis and drawing a best-fit curve.” left out, “immunoassay. […]” for “immunoassay.”

[4] = system: B16F10 melanoma tumor cells; test: In vivo inhibition of B16F10 melanoma tumor development; parameters: species or system C57BL/6NCr female mice; details: B16 melanoma in C57 mice, sc 3 μg PT, 100 units IL-2
Experimental: C57BL/6NCr female mice (20 g), approximately 50 days old, were shaved in the abdominal area, ear notched for identification, and, two or three days prior to receiving tumor cells, pre-injected subcutaneously with the immunostimulating drugs described.
On “day zero,” B16F10 melanoma tumor cells, cultured in αMEM medium with 10% FBS, were injected intradermally (10^5 cells in 0.1 ml) in the center of the mouse abdomen using a 26 gauge ½ inch needle. Four to five hours later, the drug treatment (as specified) was injected intradermally in a different area of the abdomen than the site of the tumor injection.
Intradermal treatments using the immunostimulatory drug (as specified) continued either every other day or on a Monday-Wednesday-Friday injection schedule. Control tumors (in mice not receiving an immunostimulatory drug) usually formed within seven to ten days. Tumors were examined by visual inspection, measured (length by width), and the area of any resulting lesion was recorded as mm^2 every five days.
Mice were euthanized by CO2 inhalation if the tumor exceeded 500 mm^2. Some experiments were terminated early if all mice in the control group were dead, but the experiments were not less than 20 days. The normal duration of an experiment was about 30 days.
Pyrularia thionin, both alone and in combination with IL-2, was effective in preventing or retarding the development of melanoma tumors when C57BL/6NCr mice were pretreated before injection with B16F10 cells, which produce melanoma tumors.

YAC-1 target cells = test: Natural killer assay (^51Cr release), murine splenocytes against YAC-1; type: cell-based; details: Swiss Webster murine splenocytes; YAC-1 targets; 48 hours with drugs; PT 0.01 μg/ml, IL-2 50 units/ml when present; effector to target ratio 80
Experimental: Murine spleen cell and human peripheral blood lymphocytes (PBLs) were obtained as described in the procedure for the Mitogen Assay.
Drugs and control substances were added, using sterile techniques, to the wells of a 24-well plate, using RPMI-10 as the culture medium. Spleen cells or human lymphocytes were added last to the wells at a concentration of 4×10^6 cells per 2 ml total volume in the well. Splenocyte incubation was usually three days (65-70 hours) while human lymphocyte stimulation may be extended to four to five days. The cells were incubated at 37° C. in a humidified 5% CO2 incubator.
On the day of harvest, 10^7 target cells were labeled with 150 μCi of ^51Cr (sodium chromate). Target cells used were YAC-I (murine Lymphoma) or K562 (human chronic myelogenous leukemia).
The cells were adjusted to 2×10^7 cells/ml in RPMI-10 and 150 μCi of ^51Cr were added to 500 μl of the target cell suspension (10^7 total cells) and incubated in a 5% CO2 humidified incubator for 1.5 hours. The labeled cells were washed three times with 10 ml RPMI-10 and then resuspended in 5 ml (2×10^6 cells/ml). Supernatants from washings of labeled cells were isolated and contained under lead shielding.
The stimulated effector cells were thoroughly mixed and removed from individual wells of the 24-well plate and transferred to tubes for centrifugation at 200×g. The supernatants were decanted and the pelleted cells washed once with 2 ml RPMI-10. The cells were finally resuspended in a total volume of 500 μl at approximately 8×10^6 cells/ml in RPMI-10.
One hundred microliters of the effector cell suspension (8×10^5 cells) were added in triplicate to a 96-well, V-bottom microplate. RPMI-10 was added to the wells designated for spontaneous release and total release of the target cells. One hundred microliters of the target cell suspension (1×10^4 cells/well) were added to the wells for a total volume of 200 μl. The “total release” wells contained 15 μl of 9% Triton X-100, 85 μl of RPMI-10, and 100 μl of target cells.
The 96-well plate was centrifuged at 150×g for four minutes to gently bring the effector and target cells in contact. The plate was then incubated in a humidified 5% CO2 incubator. After four hours, the assay plate was again centrifuged for five minutes at 250×g. One hundred microliters of the supernatant was carefully removed from each well and placed in 12 mm×75 mm glass tubes for counting in a gamma counter. The percent release was calculated using the following formula: […]
Addition of PT stimulates both murine splenocytes and human PBLs to kill tumor cells through lysis. This effect is enhanced in the presence of IL-2. Experimentally, the YAC-1 tumor cell line is routinely used as a target cell for murine NK cells, and the K562 cell line is used as the target for human PBLs. The human prostate cell line DU145 was also included in the test. The data set out in Table 5 show an activation of both murine and human NK cells by PT and IL-2. For these experiments, the drugs, PT and IL-2, were included in the cell suspension and incubated for 48 hours. After this period, the splenocyte suspension was mixed with the YAC-1 target cells that had been loaded with ^51Cr for four hours. The human PBLs were added to a K562 or DU-145 cell suspension that had been similarly loaded. After a 30-minute incubation, the radioactivity in the supernatant fluid was counted as a measure of lysis of the target cells, which reflects NK activity. […]

non-adherent human PBLs = test: Mitogen assay (^3H-thymidine uptake), human PBLs; type: cell-based; details: IL-2 50 units/ml alone (PT = 0)
Excerpt: as §1, §2, §3, §4

OCCS [βME, β-mercaptoethanol, reference compound]
stimulation of the mitogen reaction (Balb C splenocytes [1]; 0.1 μg/ml (PT 20 nM; βME 40 nM)): no stimulation

Pyrularia thionin (from UniProt P07504) (peptide)
Kd [2]: 65 nM

granulocyte-macrophage colony-stimulating-factor [GM-CSF]
Cpm, standard mitogen assay (Balb C splenocytes [3]; GM-CSF (20 ng/ml) alone, no PT): 1,170 Cpm | Cpm, standard mitogen assay (Balb C splenocytes [1]; GM-CSF (5 ng/ml) alone, no PT): 1,024 Cpm

keyhole limpet hemocyanin [KLH, reference compound]
IL-1 (IL-1; Experiment 1, KLH 10 μg/ml, control 3.9): 12.4 ± 0 pg/mL | IL-1 (IL-1; Experiment 4, KLH (20 mg/ml), control 9): 9 ± 0.4 pg/mL | IL-12 (IL-12): 21 ± 1.6 pg/mL | CPM of tritiated thymidine incorporated (Balb C splenocytes [3]; KLH 20 μg/ml alone (PT = 0)): 3,301 ± 255 CPM

B1: interleukin-2 (protein, UniProt P04351 21-169, looked up)
Interleukin-2: APTSSSTSSSTAEAQQQQQQQQQQQQHLEQLLMDLQELLSRMENYRNLKLPRMLTFKFYLPKQATELKDLQCLEDELGPLRHVLDLTQSKSFQLEDAENFISNIRVTVVKLKGSDNTFECQFDDESATVVDFLRRWIAFCQSIISTSPQ
notes: immunostimulatory cytokine; murine IL-2 in the mouse experiments, purchased from Sigma
Average Tumor Size ([4]; 20-31 days): 364 mm^2 | Number of Deaths ([4]; total mice 12 (IL-2), 15 (PT), 24 (PT + IL-2)): 1 | Mice w/o Tumors ([4]; total mice 12 (IL-2), 15 (PT), 24 (PT + IL-2), 20-31 days): 0 | CPM of tritiated thymidine incorporated (Balb C splenocytes [3]; IL-2 50 units/ml alone (PT = 0)): 2,379 ± 87 CPM | % Cytotoxicity (YAC-1 target cells): 16.3 ± 1.1% | CPM of tritiated thymidine incorporated (non-adherent human PBLs): 1,900 ± 64 CPM
